Experimental data from patent publication US20260297070A1, “CYCLIC [COMPOUND LEFT OUT] WRN INHIBITORS” (Nimbus Wadjet, Inc., priority 2023, published 2026).

These compounds were tested against T1, human Werner helicase (WRN-BV08, Uniprot Q14191, amino acids 517-1235 with L1074F point mutation) (Homo sapiens, UniProt Q14191, L1074F) (assay: WRN (BV08) ADP-Glo Assay). Settings: 0.15 nM WRN, 5 μM ATP, 0.1 nM DNA duplex, 15 min preincubation, 60 min at 25° C., pH 7.5, 1% DMSO; read-out: ADP-Glo_hWRN_IC50.
T1 construct: Uniprot Q14191, amino acids 517-1235 with L1074F point mutation; TEV-cleavable 8×His (C, cleaved yes); made in house; host or cells: Sf9 insect cells (baculovirus)
T1 sequence (Q14191 with tags, fused parts or gaps L1074F limits assumed): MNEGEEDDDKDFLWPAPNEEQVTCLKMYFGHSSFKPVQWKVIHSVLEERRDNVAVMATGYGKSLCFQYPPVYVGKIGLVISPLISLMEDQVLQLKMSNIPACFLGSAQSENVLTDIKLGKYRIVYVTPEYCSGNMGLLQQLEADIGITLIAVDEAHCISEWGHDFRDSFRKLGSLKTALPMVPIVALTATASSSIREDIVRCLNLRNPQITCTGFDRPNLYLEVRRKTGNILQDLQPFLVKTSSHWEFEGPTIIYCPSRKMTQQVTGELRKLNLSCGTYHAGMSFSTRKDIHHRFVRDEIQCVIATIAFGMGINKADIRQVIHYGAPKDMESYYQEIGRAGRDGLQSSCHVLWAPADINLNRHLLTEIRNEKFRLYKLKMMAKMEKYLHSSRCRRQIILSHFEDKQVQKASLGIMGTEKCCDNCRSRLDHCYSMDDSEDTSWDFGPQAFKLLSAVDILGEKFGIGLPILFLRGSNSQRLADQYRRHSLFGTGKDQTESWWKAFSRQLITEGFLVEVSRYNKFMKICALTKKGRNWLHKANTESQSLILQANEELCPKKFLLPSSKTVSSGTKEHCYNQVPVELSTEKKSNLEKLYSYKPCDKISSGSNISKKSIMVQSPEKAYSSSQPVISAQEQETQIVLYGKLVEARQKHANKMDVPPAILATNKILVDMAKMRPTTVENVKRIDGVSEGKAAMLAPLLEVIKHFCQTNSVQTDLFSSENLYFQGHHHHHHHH
Format: biochemical
Procedure, shortened: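 Untagged WRN (Sf9-expressed, TEV-cleaved) at 0.15 nM was preincubated 15 min at 25 °C with compound, then reacted 60 min at 25 °C with 5 μM ATP and 0.1 nM DNA duplex in Bicine pH 7.5, 1 mM MgCl2. ADP-Glo luminescence gave % inhibition; IC50 by four-parameter fit.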

IC50 [µM] | SMILES
0.5 to 5 | CC(C)(O)c1cc(CN(C(=O)C(c2ccc(-c3ccc(F)c(F)c3)cc2F)n2ccnn2)C2C=CS(=O)(=O)C2)ccn1 (single isomer, unassigned) [I-802, (2R*)-N-[(3R**)-1,1-dioxo-2,3-dihydro-1lambda6-thiophen-3-yl]-N-{[2-(2-hydroxypropan-2-yl)pyridin-4-yl]methyl}-2-(1H-1,2,3-triazol-1-yl)-2-{3,3′,4′-trifluoro-[1,1′-biphenyl]-4-yl}acetamide]
> 50 | O=C1CC(c2ccc(F)cc2)CCN1CC(=O)N(Cc1ccncc1)C1C=CS(=O)(=O)C1 (centres unmarked) [I-457, N-(1,1-dioxo-2,3-dihydro-1lambda6-thiophen-3-yl)-2-[4-(4-fluorophenyl)-2-oxopiperidin-1-yl]-N-[(pyridin-4-yl)methyl]acetamide]
< 0.5 | CC(C)(O)c1cc(CN(C(=O)C(c2ccc(-c3ccc(F)c(F)c3)cc2F)n2ccnn2)[C@@H]2C=CS(=O)(=O)C2)ccn1 (single isomer, unassigned) [I-800]
0.5 to 5 | COC(C(=O)N(Cc1ccnc(C(C)(C)O)c1)C1C=CS(=O)(=O)C1)c1ccc(C(F)(F)F)cc1 (centres unmarked) [I-209, N-(1,1-dioxo-2,3-dihydro-1lambda6-thiophen-3-yl)-N-{[2-(2-hydroxypropan-2-yl)pyridin-4-yl]methyl}-2-methoxy-2-[4-(trifluoromethyl)phenyl]acetamide]
10 to 50 | O=C(Cc1ccc(-c2cccs2)cc1)N(Cc1ccncc1)C1C=CS(=O)(=O)C1 (centres unmarked) [I-338, N-(1,1-dioxo-2,3-dihydro-1lambda6-thiophen-3-yl)-N-[(pyridin-4-yl)methyl]-2-[4-(thiophen-2-yl)phenyl]acetamide]
5 to 10 | O=C(Cc1ccc(-n2cccc2)cc1)N(Cc1cccc(F)c1)C1C=CS(=O)(=O)C1 (centres unmarked) [I-270, N-(1,1-dioxo-2,3-dihydro-1lambda6-thiophen-3-yl)-N-[(3-fluorophenyl)methyl]-2-[4-(1H-pyrrol-1-yl)phenyl]acetamide]
5 to 10 | C#CCCCC(=O)N1CCN(C(=O)c2ccc(CN(C(=O)Cc3ccc(-n4cccc4)cc3F)C3C=CS(=O)(=O)C3)cc2)CC1 (centres unmarked) [I-229, N-(1,1-dioxo-2,3-dihydro-1lambda6-thiophen-3-yl)-2-[2-fluoro-4-(1H-pyrrol-1-yl)phenyl]-N-({4-[4-(hex-5-ynoyl)piperazine-1-carbonyl]phenyl}methyl)acetamide]
10 to 50 | O=C(Cc1ccc(S(F)(F)(F)(F)F)cc1)N(Cc1ccnc(C2(O)COC2)c1)C1C=CS(=O)(=O)C1 (centres unmarked) [I-633, N-(1,1-dioxo-2,3-dihydro-1lambda6-thiophen-3-yl)-N-{[2-(3-hydroxyoxetan-3-yl)pyridin-4-yl]methyl}-2-[4-(pentafluoro-lambda6-sulfanyl)phenyl]acetamide]
< 0.5 | CCN(CC)C(=O)C(C(=O)N(Cc1ccnc(C(C)(C)O)c1)C1C=CS(=O)(=O)C1)c1ccc(-c2ccc(F)c(F)c2)cc1F (centres unmarked) [I-62, N′-(1,1-dioxo-2,3-dihydro-1lambda6-thiophen-3-yl)-N,N-diethyl-N′-{[2-(2-hydroxypropan-2-yl)pyridin-4-yl]methyl}-2-{3,3′,4′-trifluoro-[1,1′-biphenyl]-4-yl}propanediamide]
0.5 to 5 | CC(F)(F)c1ccc(CC(=O)N(Cc2ccncc2)C2C=CS(=O)(=O)C2)cc1 (centres unmarked) [I-191, 2-[4-(1,1-difluoroethyl)phenyl]-N-(1,1-dioxo-2,3-dihydro-1lambda6-thiophen-3-yl)-N-[(pyridin-4-yl)methyl]acetamide]
0.5 to 5 | COCc1cc(CN(C(=O)Cc2ccc(-n3cccc3C)cc2F)C2C=CS(=O)(=O)C2)ccn1 (centres unmarked) [I-118, N-(1,1-dioxo-2,3-dihydro-1lambda6-thiophen-3-yl)-2-[2-fluoro-4-(2-methyl-1H-pyrrol-1-yl)phenyl]-N-{[2-(methoxymethyl)pyridin-4-yl]methyl}acetamide]
> 50 | O=C(Cc1ccc(-n2cccc2)cc1)N(Cc1ccccc1Cl)C1C=CS(=O)(=O)C1 (centres unmarked) [I-521, N-[(2-chlorophenyl)methyl]-N-(1,1-dioxo-2,3-dihydro-1lambda6-thiophen-3-yl)-2-[4-(1H-pyrrol-1-yl)phenyl]acetamide]
0.5 to 5 | COc1cc(CN(C(=O)Cc2ccc(-n3cccc3)cc2F)C2C=CS(=O)(=O)C2)ccn1 (centres unmarked) [I-95, N-(1,1-dioxo-2,3-dihydro-1lambda6-thiophen-3-yl)-2-[2-fluoro-4-(1H-pyrrol-1-yl)phenyl]-N-[(2-methoxypyridin-4-yl)methyl]acetamide]
< 0.5 | CC(C)(O)c1cc(CN(C(=O)Cc2ccc(-c3ccc(F)c(F)c3)cc2F)C2C=CS(=O)(=O)C2)ccn1 (single isomer, unassigned) [I-11]
5 to 10 | CC1CC1c1ccc(CC(=O)N(Cc2ccncc2)C2C=CS(=O)(=O)C2)cc1 (centres unmarked) [I-245, N-(1,1-dioxo-2,3-dihydro-1lambda6-thiophen-3-yl)-2-[4-(2-methylcyclopropyl)phenyl]-N-[(pyridin-4-yl)methyl]acetamide]
> 50 | O=C(Cc1ccc(-c2ccc(F)cc2)cc1)N(Cc1ccccc1)C1C=C(CO)S(=O)(=O)C1 (centres unmarked) [I-640, N-benzyl-2-{4′-fluoro-[1,1′-biphenyl]-4-yl}-N-[5-(hydroxymethyl)-1,1-dioxo-2,3-dihydro-1lambda6-thiophen-3-yl]acetamide]
< 0.5 | CN(C)C(=O)C(C(=O)N(Cc1ccnc(C(C)(C)O)c1)C1C=CS(=O)(=O)C1)c1ccc(-c2ccc(F)cc2)cc1F (centres unmarked) [I-21, 2-{3,4′-difluoro-[1,1′-biphenyl]-4-yl}-N-(1,1-dioxo-2,3-dihydro-1lambda6-thiophen-3-yl)-N-{[2-(2-hydroxypropan-2-yl)pyridin-4-yl]methyl}-N′,N′-dimethylpropanediamide]
10 to 50 | COc1ccc(CN(C(=O)Cc2ccc(-n3cccc3)cc2)C2C=CS(=O)(=O)C2)cc1OC (centres unmarked) [I-280, N-[(3,4-dimethoxyphenyl)methyl]-N-(1,1-dioxo-2,3-dihydro-1lambda6-thiophen-3-yl)-2-[4-(1H-pyrrol-1-yl)phenyl]acetamide]
5 to 10 | O=C(Cc1ccc(-n2cccc2)cc1)N(Cc1ccncc1)C1C=CS(=O)(=O)C1 (centres unmarked) [I-239, N-(1,1-dioxo-2,3-dihydro-1lambda6-thiophen-3-yl)-N-[(pyridin-4-yl)methyl]-2-[4-(1H-pyrrol-1-yl)phenyl]acetamide]
0.5 to 5 | CC(C)c1ccc(CC(=O)N(Cc2ccncc2)C2C=CS(=O)(=O)C2)c(F)c1 (centres unmarked) [I-151, N-(1,1-dioxo-2,3-dihydro-1lambda6-thiophen-3-yl)-2-[2-fluoro-4-(propan-2-yl)phenyl]-N-[(pyridin-4-yl)methyl]acetamide]
10 to 50 | O=C(Cc1ccc(-n2cccc2)cc1)N(Cc1ccc(C(F)(F)F)nc1)C1C=CS(=O)(=O)C1 (centres unmarked) [I-295, N-(1,1-dioxo-2,3-dihydro-1lambda6-thiophen-3-yl)-2-[4-(1H-pyrrol-1-yl)phenyl]-N-{[6-(trifluoromethyl)pyridin-3-yl]methyl}acetamide]
< 0.5 | CC(C)(O)COc1cc(CN(C(=O)Cc2ccc(S(F)(F)(F)(F)F)cc2)C2C=CS(=O)(=O)C2)ccn1 (centres unmarked) [I-768, N-(1,1-dioxo-2,3-dihydro-1lambda6-thiophen-3-yl)-N-{[2-(2-hydroxy-2-methylpropoxy)pyridin-4-yl]methyl}-2-[4-(pentafluoro-lambda6-sulfanyl)phenyl]acetamide]
> 50 | COc1cc(CN(C(=O)C2Cc3cc(-c4ccc(F)cc4)ccc3O2)C2C=CS(=O)(=O)C2)ccn1 (centres unmarked) [I-399, N-(1,1-dioxo-2,3-dihydro-1lambda6-thiophen-3-yl)-5-(4-fluorophenyl)-N-[(2-methoxypyridin-4-yl)methyl]-2,3-dihydro-1-benzofuran-2-carboxamide]
> 50 | O=C(CCc1[nH]nc2ccccc12)N(Cc1ccncc1)C1C=CS(=O)(=O)C1 (centres unmarked) [I-413, N-(1,1-dioxo-2,3-dihydro-1lambda6-thiophen-3-yl)-3-(2H-indazol-3-yl)-N-[(pyridin-4-yl)methyl]propanamide]
> 50 | COc1ccc2c(CC(=O)N(Cc3ccncc3)C3C=CS(=O)(=O)C3)c[nH]c2c1 (centres unmarked) [I-541, N-(1,1-dioxo-2,3-dihydro-1lambda6-thiophen-3-yl)-2-(6-methoxy-1H-indol-3-yl)-N-[(pyridin-4-yl)methyl]acetamide]
< 0.5 | O=C(Cn1cc(-c2ccc(F)cc2)cn1)N(Cc1ccnc(OC(F)F)c1)C1C=CS(=O)(=O)C1 (centres unmarked) [I-662, N-{[2-(difluoromethoxy)pyridin-4-yl]methyl}-N-(1,1-dioxo-2,3-dihydro-1lambda6-thiophen-3-yl)-2-[4-(4-fluorophenyl)-1H-pyrazol-1-yl]acetamide]
< 0.5 | CC(C)(O)c1cc(CN(C(=O)C(c2ccc(-c3ccc(F)c(F)c3)cc2F)n2cccn2)C2C=CS(=O)(=O)C2)ccn1 (single isomer, unassigned) [I-669, (2R*)-N-[(3R**)-1,1-dioxo-2,3-dihydro-1lambda6-thiophen-3-yl]-N-{[2-(2-hydroxypropan-2-yl)pyridin-4-yl]methyl}-2-(1H-pyrazol-1-yl)-2-{3,3′,4′-trifluoro-[1,1′-biphenyl]-4-yl}acetamide]
< 0.5 | COc1cc(CN(C(=O)C(OC)c2ccc(-c3ccc(F)cc3)cc2F)C2C=CS(=O)(=O)C2)ccn1 (centres unmarked) [I-71, 2-{3,4′-difluoro-[1,1′-biphenyl]-4-yl}-N-(1,1-dioxo-2,3-dihydro-1lambda6-thiophen-3-yl)-2-methoxy-N-[(2-methoxypyridin-4-yl)methyl]acetamide]
< 0.5 | COc1cc(CN(C(=O)Cc2ccc(C(F)(F)F)cc2)C2C=CS(=O)(=O)C2)ccn1 (single isomer, unassigned) [I-57]
